Data reported in the NIST ThermoML archive (doi:10.1021/je0502647).
Numbers after ± are expanded uncertainties.

Assay: activity coefficient (dimensionless); of the first substance listed, at infinite dilution; xn = mol fraction of the nth substance listed
Conditions: Liquid, gas stripping method, x1 = 0

| Structure (SMILES) | activity coefficient (250 K) | activity coefficient (270 K) | activity coefficient (289.99 K) | activity coefficient (310 K) | activity coefficient (329.99 K) | activity coefficient (270.01 K) | activity coefficient (249.94 K) | activity coefficient (270.06 K) | activity coefficient (309.98 K) | activity coefficient (249.98 K) |
| --- | --- | --- | --- | --- | --- | --- | --- | --- | --- | --- |
| C/C=C/C [(E)-2-butene] + C=CCO | 6.23 ± 0.19 | 5.85 ± 0.18 | 5.67 ± 0.17 | 5.38 ± 0.16 | 4.91 ± 0.15 | – | – | – | – | – |
| C=CC=C [1,3-butadiene] + C=CCO | 4.12 ± 0.12 | – | 4.02 ± 0.12 | 3.89 ± 0.12 | 3.59 ± 0.11 | 4.06 ± 0.12 | – | – | – | – |
| C/C=C\C [(Z)-2-butene] + C=CCO | – | – | 5.06 ± 0.15 | – | 4.57 ± 0.14 | – | 5.53 ± 0.17 | 5.28 ± 0.16 | 4.85 ± 0.15 | – |
| CC(C)C [2-methylpropane] + C=CCO | – | – | 8.83 ± 0.26 | 8.11 ± 0.24 | 7.14 ± 0.21 | 9.51 ± 0.29 | 10.5 ± 0.3 | – | – | – |
| CC(F)F [1,1-difluoroethane] + C=CCO | – | – | 4.68 ± 0.14 | – | 4.02 ± 0.12 | – | 5.09 ± 0.15 | 4.94 ± 0.15 | 4.39 ± 0.13 | – |
| COC [dimethyl ether] + C=CCO | – | – | 1.2 ± 0.04 | – | 1.16 ± 0.04 | – | 1.23 ± 0.04 | 1.22 ± 0.04 | 1.2 ± 0.04 | – |
| CCCl [chloroethane] + C=CCO | – | – | 2.99 ± 0.09 | – | 2.69 ± 0.08 | – | 3.09 ± 0.09 | 3.07 ± 0.09 | 2.87 ± 0.09 | – |
| C=CCC [1-butene] + C=CCO | – | – | 5.62 ± 0.17 | 5.35 ± 0.16 | 5.04 ± 0.15 | 5.85 ± 0.18 | 6.08 ± 0.18 | – | – | – |
| CCCC [butane] + C=CCO | – | – | 8.2 ± 0.25 | 7.58 ± 0.23 | 6.79 ± 0.2 | 8.84 ± 0.27 | – | – | – | 9.71 ± 0.29 |
